Measured values: PubChem BioAssay AID1845217 (Molecular Pharmacology Branch, DTP, NCI, 2023)
pIC50: −log10 of the molar value. Several values for one entry are separate records, joined by “and”; a condition that tells them apart may be missing. Identical values can stand only once.

System: VA-ES-BJ tumor spheroid viability
Assay: Anticancer human tumor VA-ES-BJ cell line growth inhibition;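 note: spheroids exposed to compounds for seven days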;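 for viability, T/C: percent of DMSO vehicle control viability so 100% = untreated growth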
Conditions: spheroids with HUVEC and MSC; for viability, T/C: stronger effect = lower value
Summary of the method: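 Single agents and combinations were tested on spheroids built from tumor cells plus HUVEC and hMSC, at half-log dilutions starting at or near clinical Cmax, else 10 microM; final DMSO 0.25% (v/v).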

[1] = curve of first compound, second compound 1 µM
[2] = curve of first compound, second compound 3.16 µM
[3] = curve of first compound, second compound 10 µM
[4] = curve of first compound, second compound 31.6 µM
[5] = curve of first compound, second compound 100 µM
[6] = second compound 1 µM, first compound 0.00949 µM
[7] = second compound 1 µM, first compound 0.03 µM
[8] = second compound 1 µM, first compound 0.0949 µM
[9] = second compound 1 µM, first compound 0.3 µM
[10] = second compound 1 µM, first compound 0.949 µM
[11] = second compound 1 µM, first compound 3 µM
[12] = second compound 3.16 µM, first compound 0.00949 µM
[13] = second compound 3.16 µM, first compound 0.03 µM
[14] = second compound 3.16 µM, first compound 0.0949 µM
[15] = second compound 3.16 µM, first compound 0.3 µM
[16] = second compound 3.16 µM, first compound 0.949 µM
[17] = second compound 3.16 µM, first compound 3 µM
[18] = second compound 10 µM, first compound 0.00949 µM
[19] = second compound 10 µM, first compound 0.03 µM
[20] = second compound 10 µM, first compound 0.0949 µM
[21] = second compound 10 µM, first compound 0.3 µM
[22] = second compound 10 µM, first compound 0.949 µM
[23] = second compound 10 µM, first compound 3 µM
[24] = second compound 31.6 µM, first compound 0.00949 µM
[25] = second compound 31.6 µM, first compound 0.03 µM
[26] = second compound 31.6 µM, first compound 0.0949 µM
[27] = second compound 31.6 µM, first compound 0.3 µM
[28] = second compound 31.6 µM, first compound 0.949 µM
[29] = second compound 31.6 µM, first compound 3 µM
[30] = second compound 100 µM, first compound 0.00949 µM
[31] = second compound 100 µM, first compound 0.03 µM
[32] = second compound 100 µM, first compound 0.0949 µM
[33] = second compound 100 µM, first compound 0.3 µM
[34] = second compound 100 µM, first compound 0.949 µM
[35] = second compound 100 µM, first compound 3 µM

SMILES: CNCc1ccc(-c2cc(-c3nc(-c4ccc(S(=O)(=O)C(C)C)cc4)cnc3N)on2)cc1 + COc1cc2c(cc1O)CCNC21CSC2c3c(OC(C)=O)c(C)c4c(c3C(COC1=O)N1C(O)C3Cc5cc(C)c(OC)c(O)c5C(C21)N3C)OCO4
- pIC50 (curve of first compound, second compound 30 pM): 6.59
- pIC50 (curve of first compound, second compound 94.9 pM): 6.91
- pIC50 (curve of first compound, second compound 0.0003 µM): > 8.02
- pIC50 (curve of first compound, second compound 0.000949 µM): > 8.02
- pIC50 (curve of first compound, second compound 0.003 µM): > 8.02
- viability, T/C (second compound 30 pM, first compound 0.00949 µM): 91.9%
- viability, T/C (second compound 30 pM, first compound 0.03 µM): 90%
- viability, T/C (second compound 30 pM, first compound 0.0949 µM): 82.8%
- viability, T/C (second compound 30 pM, first compound 0.3 µM): 45.7%
- viability, T/C (second compound 30 pM, first compound 0.949 µM): 7.78%
- viability, T/C (second compound 30 pM, first compound 3 µM): 1.72%
- viability, T/C (second compound 94.9 pM, first compound 0.00949 µM): 85.9%
- viability, T/C (second compound 94.9 pM, first compound 0.03 µM): 79.8%
- viability, T/C (second compound 94.9 pM, first compound 0.0949 µM): 51.1%
- viability, T/C (second compound 94.9 pM, first compound 0.3 µM): 34.1%
- viability, T/C (second compound 94.9 pM, first compound 0.949 µM): 6.4%
- viability, T/C (second compound 94.9 pM, first compound 3 µM): 1.3%
- viability, T/C (second compound 0.0003 µM, first compound 0.00949 µM): 47.9%
- viability, T/C (second compound 0.0003 µM, first compound 0.03 µM): 44.7%
- viability, T/C (second compound 0.0003 µM, first compound 0.0949 µM): 36.5%
- viability, T/C (second compound 0.0003 µM, first compound 0.3 µM): 23.9%
- viability, T/C (second compound 0.0003 µM, first compound 0.949 µM): 5.48%
- viability, T/C (second compound 0.0003 µM, first compound 3 µM): 1.1%
- viability, T/C (second compound 0.000949 µM, first compound 0.00949 µM): 3.65%
- viability, T/C (second compound 0.000949 µM, first compound 0.03 µM): 3.36%
- viability, T/C (second compound 0.000949 µM, first compound 0.0949 µM): 4.65%
- viability, T/C (second compound 0.000949 µM, first compound 0.3 µM): 1.83%
- viability, T/C (second compound 0.000949 µM, first compound 0.949 µM): 0.95%
- viability, T/C (second compound 0.000949 µM, first compound 3 µM): 1.89%
- viability, T/C (second compound 0.003 µM, first compound 0.00949 µM): 1.45%
- viability, T/C (second compound 0.003 µM, first compound 0.03 µM): 1.2%
- viability, T/C (second compound 0.003 µM, first compound 0.0949 µM): 0.99%
- viability, T/C (second compound 0.003 µM, first compound 0.3 µM): 1.37%
- viability, T/C (second compound 0.003 µM, first compound 0.949 µM): 1.15%
- viability, T/C (second compound 0.003 µM, first compound 3 µM): 0.13%

SMILES: Cc1sc2c(c1C)C(c1ccc(Cl)cc1)=NC(CC(=O)Nc1ccc(O)cc1)c1nnc(C)n1-2 (configuration not stated)
- viability, T/C (compound 0.00949 µM): 72.1% and 86.4% and 77.2%
- viability, T/C (compound 0.03 µM): 66.8% and 59.2% and 64.1%
- viability, T/C (compound 0.0949 µM): 47.3% and 45% and 46.2%
- viability, T/C (compound 0.3 µM): 30.5% and 32.6% and 28.8%
- viability, T/C (compound 0.949 µM): 25.7% and 24.2% and 20.7%
- viability, T/C (compound 3 µM): 18.6% and 22.5% and 15.8%
- pIC50 (curve of compound): 7.08 and 7.22 and 7.14

SMILES: Cn1ncnc1[C@H]1c2n[nH]c(=O)c3cc(F)cc(c23)N[C@@H]1c1ccc(F)cc1 + Cn1nnc2c(C(N)=O)ncn2c1=O
- pIC50 [1]: 6.27
- pIC50 [2]: 6.67
- pIC50 [3]: 7.24
- pIC50 [4]: > 8.02
- pIC50 [5]: > 8.02
- viability, T/C [6]: 97.4%
- viability, T/C [7]: 90.7%
- viability, T/C [8]: 81.8%
- viability, T/C [9]: 68.7%
- viability, T/C [10]: 33.1%
- viability, T/C [11]: 7.3%
- viability, T/C [12]: 94.4%
- viability, T/C [13]: 51.4%
- viability, T/C [14]: 68.4%
- viability, T/C [15]: 55.3%
- viability, T/C [16]: 25.1%
- viability, T/C [17]: 7.36%
- viability, T/C [18]: 72.3%
- viability, T/C [19]: 58.8%
- viability, T/C [20]: 42.8%
- viability, T/C [21]: 26.3%
- viability, T/C [22]: 10.4%
- viability, T/C [23]: 7.26%
- viability, T/C [24]: 33%
- viability, T/C [25]: 20.1%
- viability, T/C [26]: 13.4%
- viability, T/C [27]: 10.1%
- viability, T/C [28]: 7.36%
- viability, T/C [29]: 5.8%
- viability, T/C [30]: 12.1%
- viability, T/C [31]: 7.76%
- viability, T/C [32]: 7.62%
- viability, T/C [33]: 7.16%
- viability, T/C [34]: 6.55%
- viability, T/C [35]: 5.96%

SMILES: CNCc1ccc(-c2cc(-c3nc(-c4ccc(S(=O)(=O)C(C)C)cc4)cnc3N)on2)cc1 + Cn1nnc2c(C(N)=O)ncn2c1=O
- pIC50 [1]: 6.39
- pIC50 [2]: 6.43
- pIC50 [3]: 6.47
- pIC50 [4]: 6.54
- pIC50 [5]: 6.73
- viability, T/C [6]: 87.8%
- viability, T/C [7]: 82%
- viability, T/C [8]: 84%
- viability, T/C [9]: 63.3%
- viability, T/C [10]: 11.8%
- viability, T/C [11]: 2.45%
- viability, T/C [12]: 85.5%
- viability, T/C [13]: 85.3%
- viability, T/C [14]: 74.4%
- viability, T/C [15]: 59.9%
- viability, T/C [16]: 12.8%
- viability, T/C [17]: 1.99%
- viability, T/C [18]: 86.9%
- viability, T/C [19]: 92.2%
- viability, T/C [20]: 79.1%
- viability, T/C [21]: 56.1%
- viability, T/C [22]: 10.4%
- viability, T/C [23]: 2.81%
- viability, T/C [24]: 91.1%
- viability, T/C [25]: 85%
- viability, T/C [26]: 72.7%
- viability, T/C [27]: 53.5%
- viability, T/C [28]: 10.2%
- viability, T/C [29]: 3.57%
- viability, T/C [30]: 95.6%
- viability, T/C [31]: 76.7%
- viability, T/C [32]: 68%
- viability, T/C [33]: 41.7%
- viability, T/C [34]: 11.7%
- viability, T/C [35]: 2.21%
